Measured values from patent US12679878B2, “CRF2 receptor agonists and their use in therapy” (SANOFI, priority 2020, dated 2026).
Like-named read-outs stand apart in the source and are kept apart here. Starred links: 1 amine or outer side, 2 acyl side, 3 side chain; linkers in the order of their positions; H or OH if unused. Non-standard residues stand in square brackets, D forms with d. Residues, ends and D or L forms follow the SMILES beside them. Groups on a side chain read outwards from the residue. *: point of attachment. C18 diacid = O=C(O)CCCCCCCCCCCCCCCCC(=O)*; γGlu = O=C(O)[C@H](CCC(=O)[*:2])N[*:1]; Palmitoyl = CCCCCCCCCCCCCCCC(=O)*; AEEA = NCCOCCOCC(=O)O; Aib = CC(C)(N)C(=O)O

What was measured:
[1] = target: T1, human CRF2α receptor (Homo sapiens, UniProt Q13324); experiment: cAMP agonism at human CRF2 α receptor in TeloHEAC cells (Example 7); format: cell-based; conditions: cAMP HTRF, TeloHEAC cells stably expressing human CRF2 α
T1 construct: expressed in transfected cells; host or cells: TeloHEAC
T1 sequence (Q13324 1-411): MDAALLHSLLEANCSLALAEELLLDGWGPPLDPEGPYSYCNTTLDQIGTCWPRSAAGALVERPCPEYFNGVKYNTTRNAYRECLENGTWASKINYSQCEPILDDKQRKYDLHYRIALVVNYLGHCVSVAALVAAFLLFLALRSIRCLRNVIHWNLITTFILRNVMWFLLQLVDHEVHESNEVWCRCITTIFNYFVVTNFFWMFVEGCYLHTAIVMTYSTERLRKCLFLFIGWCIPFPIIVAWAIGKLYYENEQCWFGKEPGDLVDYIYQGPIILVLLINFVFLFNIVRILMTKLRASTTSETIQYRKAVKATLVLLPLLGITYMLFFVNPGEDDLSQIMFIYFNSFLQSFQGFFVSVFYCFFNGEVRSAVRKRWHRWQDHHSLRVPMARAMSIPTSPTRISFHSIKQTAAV
Summary of the method: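 Thawed frozen stably transfected cells in HBSS/20 mM HEPES (0% or 0.1% HSA) plus 2 mM IBMX were exposed to compound at 2000 cells/well for 30 min at room temperature. Intracellular cAMP was read by HTRF (665/620 nm ratio) after 1 h lysis; EC50 was derived with 1000 nM urocortin 2 set as 100%.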

[2] = target: T2, CRF1R receptor (Homo sapiens, UniProt P34998); experiment: cAMP activity at anti-target CRF1R, CRF1R-overexpression CHO cell line (Example 9); format: cell-based; conditions: CRF1R-overexpression CHO cell line; for EC50: 0% HSA; for Emax: read-out: Emax (%)
T2 construct: host or cells: CHO-K1 clone 2
T2 sequence (P34998 24-415): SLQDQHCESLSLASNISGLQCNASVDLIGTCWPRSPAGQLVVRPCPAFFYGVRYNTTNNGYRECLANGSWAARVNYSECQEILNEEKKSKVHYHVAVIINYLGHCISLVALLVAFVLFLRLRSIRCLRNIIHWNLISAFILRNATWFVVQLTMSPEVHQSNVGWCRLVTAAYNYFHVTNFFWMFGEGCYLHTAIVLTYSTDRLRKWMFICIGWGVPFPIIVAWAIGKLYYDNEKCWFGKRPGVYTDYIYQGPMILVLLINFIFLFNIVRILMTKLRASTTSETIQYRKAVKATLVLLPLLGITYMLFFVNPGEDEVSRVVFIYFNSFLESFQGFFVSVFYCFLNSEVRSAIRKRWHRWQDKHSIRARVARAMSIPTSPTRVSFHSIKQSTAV
Description: Cells were grown in a T175 culture flask placed at 37° C. to near confluence in medium (DMEM/10% FBS) and collected in 2 ml vials in cell culture medium containing 10% DMSO in a concentration of 10-50 million cells/ml. Each vial contained 1.8 ml cells. The vials were slowly frozen to −80° C. in isopropanol and then transferred in liquid nitrogen for storage. Prior to use, frozen cells were thawed quickly at 37° C. and washed (5 min at 900 rpm) with 20 ml cell buffer (1×HBSS; 20 mM HEPES; 0% or 0.1% HSA). Cells were resuspended in assay buffer (cell buffer plus 2 mM IBMX) and adjusted to a cell density of 1 million cells/ml. For measurement, 5 μl cells (final […]) and 5 μL of test compound were added to a 384-well plate, followed by incubation for 30 minutes at room temperature.
The CAMP content of cells was determined using a kit from Cisbio Corp. (cat. no. 62AM4PEC) based on HTRF (Homogenous Time Resolved Fluorescence). […] The percent activity value (E %) was calculated by setting 1000 nM of urocortin 2 (UCN2) as 100%.
A CRF1R-overexpression CHO cell line was used in this study.

[3] = 0% HSA, read-out: EC50 [nM], 0% HSA
[4] = 0.1% HSA, read-out: EC50 [nM], 0.1% HSA

Structure (SMILES) | EC50 [1, 3] [nM] | EC50 [2] [nM] | Emax [2] [%] | EC50 [1, 4] [nM]
CCCCCCCCCCCCCCCC(=O)N[C@@H](CCC(=O)NCCCC[C@H](NC(=O)[C@@H](NC(=O)[C@H](CCCCN)NC(=O)[C@@H](NC(=O)[C@@H]1CCCN1C(=O)[C@@H](NC(=O)[C@H](CC(=O)O)NC(=O)[C@H](CC(C)C)NC(=O)[C@H](CO)NC(=O)[C@H](CC(C)C)NC(=O)[C@@H](NC(=O)[C@@H](N)Cc1ccccc1)[C@@H](C)O)C(C)C)[C@@H](C)O)[C@@H](C)CC)C(=O)N[C@@H](CCC(N)=O)C(=O)N[C@@H](CCCCN)C(=O)N[C@@H](CC(C)C)C(=O)N[C@@H](CC(C)C)C(=O)N[C@@H](CCCCN)C(=O)N[C@@H](CCC(N)=O)C(=O)N[C@@H](CCC(=O)O)C(=O)N[C@@H](CCCCN)C(=O)N[C@@H](CCC(N)=O)C(=O)N[C@@H](CCCNC(=N)N)C(=O)N[C@@H](CCCCN)C(=O)N[C@@H](CCC(N)=O)C(=O)N[C@@H](CCCCN)C(=O)N[C@@H](CCC(N)=O)C(=O)N[C@@H](CCC(N)=O)C(=O)N[C@@H](C)C(=O)N[C@@H](CCCCN)C(=O)N[C@H](C(=O)N[C@@H](CC(N)=O)C(=O)N[C@@H](C)C(=O)N[C@@H](CCCCN)C(=O)N[C@H](C(=O)N[C@@H](CC(C)C)C(=O)N[C@@H](C)C(=O)N[C@@H](CCCNC(=N)N)C(=O)N[C@H](C(N)=O)C(C)C)[C@@H](C)CC)[C@@H](C)O)C(=O)O [compound 12] (H-FTLSLDVPTKIK([γGlu-Palmitoyl])QKLLKQEKQRKQKQQAKTNAKILARV-NH2) | 0.09 | > 1000 | 41.8 | 
CCCCCCCCCCCCCCCC(=O)N[C@@H](CCC(=O)NCCCC[C@H](NC(=O)[C@H](CC(C)C)NC(=O)[C@H](CCCCN)NC(=O)[C@@H](NC(=O)[C@@H]1CCCN1C(=O)[C@H](NC(=O)[C@H](CC(=O)O)NC(=O)[C@H](CC(C)C)NC(=O)[C@H](CO)NC(=O)[C@H](CC(C)C)NC(=O)[C@@H](NC(=O)[C@@H](N)[C@@H](C)CC)C(C)C)C(C)C)[C@@H](C)O)C(=O)N[C@@H](CCC(N)=O)C(=O)N[C@@H](CCCCN)C(=O)N[C@@H](CC(C)C)C(=O)N[C@@H](CC(C)C)C(=O)N[C@@H](CCCCN)C(=O)N[C@@H](CCC(N)=O)C(=O)N[C@@H](CCC(=O)O)C(=O)N[C@@H](CCCNC(=N)N)C(=O)N[C@@H](CCC(N)=O)C(=O)N[C@@H](CCCNC(=N)N)C(=O)N[C@@H](CCCCN)C(=O)N[C@@H](CCC(=O)O)C(=O)NC(C)(C)C(=O)N[C@@H](CCC(=O)O)C(=O)N[C@@H](CCC(N)=O)C(=O)N[C@@H](C)C(=O)N[C@@H](CCC(=O)O)C(=O)N[C@@H](CCCCN)C(=O)N[C@@H](CC(N)=O)C(=O)N[C@@H](CCCCN)C(=O)N[C@@H](CCCNC(=N)N)C(=O)N[C@H](C(=O)N[C@@H](CC(C)C)C(=O)N[C@@H](CCC(=O)O)C(=O)N[C@@H](CCCNC(=N)N)C(=O)N[C@H](C(N)=O)C(C)C)[C@@H](C)CC)C(=O)O [compound 21] (H-IVLSLD[dV]PTKLK([γGlu-Palmitoyl])QKLLKQERQRKE[Aib]EQAEKNKRILERV-NH2; N-terminus assumed) | 0.02 |  | 59.2 | 

Next, values leading:

EC50 [1, 3] [nM] | EC50 [2] [nM] | Emax [2] [%] | EC50 [1, 4] [nM] | Structure (SMILES)
8.56 | > 1000 | 20.8 | 28.9 | CC[C@H](C)[C@H](NC(C)=O)C(=O)N[C@H](C(=O)N[C@@H](CC(C)C)C(=O)N[C@@H](CO)C(=O)N[C@@H](CC(C)C)C(=O)N[C@@H](CC(=O)O)C(=O)N[C@@H](C(=O)N1CCC[C@H]1C(=O)N[C@H](C(=O)N[C@@H](CCCCN)C(=O)N[C@@H](CC(C)C)C(=O)N[C@@H](CCCCNC(=O)COCCOCCNC(=O)COCCOCCNC(=O)CC[C@H](NC(=O)CCCCCCCCCCCCCCCCC(=O)O)C(=O)O)C(=O)N[C@@H](CCC(N)=O)C(=O)N[C@H](C(=O)N[C@@H](CC(C)C)C(=O)N[C@@H](CC(C)C)C(=O)N[C@@H](CCC(=O)O)C(=O)N[C@@H](CCC(N)=O)C(=O)N[C@@H](CCC(=O)O)C(=O)N[C@@H](CCCNC(=N)N)C(=O)N[C@@H](CCC(N)=O)C(=O)N[C@@H](CCC(=O)O)C(=O)NC(C)(C)C(=O)N[C@@H](CCC(=O)O)C(=O)N[C@@H](CCCNC(=N)N)C(=O)N[C@@H](CCC(=O)O)C(=O)N[C@@H](CCC(N)=O)C(=O)N[C@@H](C)C(=O)N[C@@H](CCC(=O)O)C(=O)N[C@H](C(=O)N[C@@H](CC(N)=O)C(=O)N[C@@H](CCCCN)C(=O)N[C@@H](CCC(N)=O)C(=O)N[C@H](C(=O)N[C@@H](CC(C)C)C(=O)N[C@@H](CCC(=O)O)C(=O)N[C@@H](CCC(N)=O)C(=O)N[C@H](C(N)=O)C(C)C)[C@@H](C)CC)[C@@H](C)O)[C@@H](C)CC)[C@@H](C)CC)C(C)C)C(C)C [compound 160] (Ac-IVLSLD[dV]PIKLK([AEEA-AEEA-γGlu-C18 diacid])QILLEQERQE[Aib]EREQAETNKQILEQV-NH2)
36 | > 1000 | 3.42 | 977 | CC[C@H](C)[C@H](NC(C)=O)C(=O)N[C@H](C(=O)N[C@@H](CC(C)C)C(=O)N[C@@H](CO)C(=O)N[C@@H](CC(C)C)C(=O)N[C@@H](CC(=O)O)C(=O)N[C@@H](C(=O)N1CCC[C@H]1C(=O)N[C@H](C(=O)N[C@@H](CCCCN)C(=O)N[C@@H](CC(C)C)C(=O)N[C@@H](CCCCNC(=O)COCCOCCNC(=O)COCCOCCNC(=O)CC[C@H](NC(=O)CCCCCCCCCCCCCCCCC(=O)O)C(=O)O)C(=O)N[C@@H](CCC(N)=O)C(=O)N[C@H](C(=O)N[C@@H](CC(C)C)C(=O)N[C@@H](CC(C)C)C(=O)N[C@@H](CCC(=O)O)C(=O)N[C@@H](CCC(N)=O)C(=O)N[C@@H](CCC(=O)O)C(=O)N[C@@H](CCCNC(=N)N)C(=O)N[C@@H](CCC(N)=O)C(=O)N[C@@H](CCC(=O)O)C(=O)NC(C)(C)C(=O)N[C@@H](CCC(=O)O)C(=O)N[C@@H](CCCNC(=N)N)C(=O)N[C@@H](CCC(=O)O)C(=O)N[C@@H](CCC(N)=O)C(=O)N[C@@H](C)C(=O)N[C@@H](CCC(=O)O)C(=O)N[C@@H](CCCCN)C(=O)N[C@@H](CC(N)=O)C(=O)N[C@@H](CCC(=O)O)C(=O)N[C@@H](CCC(N)=O)C(=O)N[C@H](C(=O)N[C@@H](CC(C)C)C(=O)N[C@@H](CCC(=O)O)C(=O)N[C@@H](CCC(N)=O)C(=O)N[C@H](C(N)=O)C(C)C)[C@@H](C)CC)[C@@H](C)CC)[C@@H](C)CC)C(C)C)C(C)C [compound 161] (Ac-IVLSLD[dV]PIKLK([AEEA-AEEA-γGlu-C18 diacid])QILLEQERQE[Aib]EREQAEKNEQILEQV-NH2)
0.17 | > 1000 | 7.54 | 2.62 | CC[C@H](C)[C@H](N)C(=O)N[C@H](C(=O)N[C@@H](CC(C)C)C(=O)N[C@@H](CO)C(=O)N[C@@H](CC(C)C)C(=O)N[C@@H](CC(=O)O)C(=O)N[C@@H](C(=O)N1CCC[C@H]1C(=O)N[C@H](C(=O)N[C@@H](CCCCN)C(=O)N[C@@H](CC(C)C)C(=O)N[C@@H](CCCCNC(=O)COCCOCCNC(=O)COCCOCCNC(=O)CC[C@H](NC(=O)CC[C@H](NC(=O)CCCCCCCCCCCCCCCCC(=O)O)C(=O)O)C(=O)O)C(=O)N[C@@H](CCC(N)=O)C(=O)N[C@H](C(=O)N[C@@H](CC(C)C)C(=O)N[C@@H](CC(C)C)C(=O)N[C@@H](CCCCN)C(=O)N[C@@H](CCC(N)=O)C(=O)N[C@@H](CCC(=O)O)C(=O)N[C@@H](CCCNC(=N)N)C(=O)N[C@@H](CCC(N)=O)C(=O)N[C@@H](CCCCN)C(=O)NC(C)(C)C(=O)N[C@@H](CCC(N)=O)C(=O)N[C@@H](CCCNC(=N)N)C(=O)N[C@@H](CCC(=O)O)C(=O)N[C@@H](CCC(N)=O)C(=O)N[C@@H](C)C(=O)N[C@@H](CCC(=O)O)C(=O)N[C@@H](CCCCN)C(=O)N[C@@H](CC(N)=O)C(=O)N[C@@H](CCCCN)C(=O)N[C@@H](CCC(N)=O)C(=O)N[C@H](C(=O)N[C@@H](CC(C)C)C(=O)N[C@@H](C)C(=O)N[C@@H](CCC(N)=O)C(=O)N[C@H](C(N)=O)C(C)C)[C@@H](C)CC)[C@@H](C)CC)[C@@H](C)CC)C(C)C)C(C)C [compound 171] (H-IVLSLD[dV]PIKLK([AEEA-AEEA-γGlu-γGlu-C18 diacid])QILLKQERQK[Aib]QREQAEKNKQILAQV-NH2)
